Data reported in patent US11896581B2, “Compositions and methods for providing health benefits in an animal” (Société des Produits Nestlé S.A., priority 2020, dated 2024).

System: H4IIE cells
Assay: Cellular bioassay of hepatic glucose production (gluconeogenesis) induced by sodium pyruvate and lactate (SLP)
Format: cell-based
Details: for glucose production relative to SLP condition (100%): 6 h incubation
Method: A cellular bioassay was established according to a method described by Okamoto et al. (Establishment and characterization of a novel method for evaluating gluconeogenesis using hepatic cell lines, H4IIE and HepG2, Archives of Biochemistry and Biophysics, Volume 491, Issues 1-2, November 2009, Pages 46-52; Takashi Okamoto, Naohide Kanemoto, Takashi Ban, Toshiki Sudo, Keisuke Nagano, Ichiro Niki.) (FIG. 1). Briefly, H4IIE cells pre-cultured at high density were seeded into a 12-well plate at a density of 5.714×10^5 cells/cm^2 and cultured for 24 h in EMEM supplemented with 10% FCS. […] The assay was started by switching the medium for KHH Buffer in the presence of gluconeogenesis-inducing substrates (1 mM sodium pyruvate and 10 mM lactate). Compounds were added at different concentrations and tested in duplicate. 10 mM of metformin was included as a positive control for inhibition of gluconeogenesis. The conditioned medium was collected after 6 h of incubation (stored at −80° C.). The cells remaining in the wells are washed once with PBS and then stored dry at −20° C.). The medium is used to assay glucose content using a fluorometric glucose assay kit. Frozen cells' proteins are first extracted and then quantified, to normalize the glucose results. Components were tested in at least two independent experiments performed at different cell passages. The selected compounds (Histidine and Ferulic acid) were tested individually to assess their inhibitory effect on hepatic glucose production (Table 1) using a range of concentrations determined from previous internal knowledge and literature. Additional experiments on individual compounds were conducted: the amino acid arginine and leucine to test the specificity of histidine effects against other amino acids. In addition, interactions and synergies between compounds were further explored using combined formulations, for which detailed information is provided in Table 1. For data analysis described herein, results are expressed as relative glucose produced in every treatment compared to the glucose produced using SLP treatment. […] Independent experiments were performed, using different cells passages in each condition. […] Sodium Pyruvate (1 mM) and Sodium Lactate (10 mM) was used to induce gluconeogenesis in H4IIE cells.

N=C(N)NCCC[C@H](N)C(=O)O [Arginine, arginine, reference compound]
glucose production relative to SLP condition (100%) (single compound at 0.2 mM): 81.44%±2.72 | glucose production relative to SLP condition (100%) (single compound at 2 mM): 65.01%±11.52 | glucose production relative to SLP condition (100%) (single compound at 20 mM): 45.40%±3.57

COc1cc(/C=C/C(=O)O)ccc1O [Ferulic acid, ferulic acid]
inhibition on doubling the dose (dose doubled from 0.5 μM to 1 μM): 30% | inhibiting effect of doubling the dose (dose doubled from 1 μM to 2 μM): 40% | inhibition on doubling the dose (dose doubled from 2 μM to 4 μM): 32% | glucose production relative to SLP condition (100%) (single compound at 0.5 μM): 85.67%±3.81 | glucose production relative to SLP condition (100%) (single compound at 0.8 μM): 81.51%±11.70 | glucose production relative to SLP condition (100%) (single compound at 1 μM): 61.38%±15.82 | glucose production relative to SLP condition (100%) (single compound at 2 μM): 36.57%±6.02 | glucose production relative to SLP condition (100%) (single compound at 4 μM): 25.08%±5.03

CC(C)C[C@H](N)C(=O)O [Leucine, leucine, reference compound]
glucose production relative to SLP condition (100%) (single compound at 0.2 mM): 84.69%±1.05 | glucose production relative to SLP condition (100%) (single compound at 2 mM): 75.37%±0.36 | glucose production relative to SLP condition (100%) (single compound at 20 mM): 83.76%±7.30

N[C@@H](Cc1c[nH]cn1)C(=O)O [histidine]
inhibiting effect of doubling the dose (dose doubled from 0.5 mM to 1 mM): 52% | inhibiting effect of doubling the dose (dose doubled from 1 mM to 2 mM): 25% | glucose production relative to SLP condition (100%) (single compound at 0.2 mM): 93.7%±10.85 | glucose production relative to SLP condition (100%) (single compound at 0.5 mM): 87.00%±17.2 | glucose production relative to SLP condition (100%) (single compound at 1 mM): 52.67%±4.16 | glucose production relative to SLP condition (100%) (single compound at 2 mM): 39.19%±7.44 | glucose production relative to SLP condition (100%) (single compound at 20 mM): 8.39%±2.49

CN(C)C(=N)N=C(N)N [metformin, reference compound]
glucose production relative to SLP condition (100%) (10 mM, positive control): 9.71%±4.2
